# Like-named read-outs stand apart in the source and are kept apart here.
# Experiments:
# [1] = system: mice; test: Acute toxicity LD50 i.v. in mice; assay type: in vivo
# Excerpt: Some of the available data relative to Gd chelates of this invention are detailed in Example 4, together with a comparison with the known data of the following commercially available products: DOTAREM®, OMNISCAN®, PROHANCE®. The datum relative to Gd-DTPA-bismethylammide, Gd-DTPA-BMA, which is the active ingredient of OMNISCAN®, is also reported, even if there is remarkable difference in the LD50 values. Such a difference is known to be due to the simultaneous presence in OMNISCAN® of Gd-DTPA-BMA 500 mM, and of the complex of the same ligand with sodium and calcium, Na[CaDTPA-BMA], at a 25 mM concentration. Therefore the comparison of this last datum with those available for the compounds of this invention is more significant as far as determination homogeneity is concerned.
# [2] = Osmolality of aqueous solutions; assay type: physicochemical
# [3] = Charge; assay type: physicochemical; conditions: Table I, own compound
# [4] = cited from earlier work; for formal charge: background, gadolinium chelate before salification
SMILES,LD50 (mice) i.v. [1] [mmol/kg],formal charge [4],other results
"CC(C(=O)NC(CCCO)(CCCO)CCCO)N1CCN(CC(=O)[O-])CCN(CC(=O)[O-])CCN(CC(=O)[O-])CC1.[Gd+3] (stereo not shown) [Example 1, Gadolinium complex of 10-[2-[[1,1-bis(3-hydroxypropyl)-4-hydroxybutyl]amino]-1-methylene-2-oxoethyl]-1,4,7,10-tetraazacyclododecan-1,4,7-triacetic acid]",23.4,,
"C=C(C(=O)NCCOCCO)N1CCN(CC(=O)[O-])CCN(CC(=O)[O-])CCN(CC(=O)[O-])CC1.[Gd+3] [Example 2, Gadolinium complex of 10-[2-[[2-(2-hydroxyethoxy)ethyl]amino]-1-(methylene)-2-oxoethyl]-1,4,7,10-tetraazacyclododecan-1,4,7-triacetic acid]",37.6,,OSMOLALITY [2]: 855 mOsm/kg H2 O; CHARGE [3]: non-ionic
O=C([O-])CN1CCN(CC(=O)[O-])CCN(CC(=O)O)CCN(CC(=O)[O-])CC1.[Gd+3] [Gd-DOTA],,-1,
O=C([O-])CN(CCN(CC(=O)[O-])CC(=O)O)CCN(CC(=O)[O-])CC(=O)O.[Gd+3] [Gd-DTPA],,-2,
"CNC(=O)CN(CCN(CCN(CC(=O)[O-])CC(=O)NC)CC(=O)[O-])CC(=O)[O-].[Gd+3] [GdDTPA-BMA, Gd-DTPA-bismethylamide]",,,"CHARGE ([4]; Table I, from the data available on the product brochures): non-ionic"

# From patent US5622688A, “Macrocyclic chelants, their chelates and uses thereof in the diagnostic field” (Dibra S.p.A., priority 1994, dated 1997)
